Source: US20240026268A1, “MICROFLUIDIC HANGING DROP CULTURE DEVICE FOR CULTURING CELL AGGREGATE” (CELLARTGEN INC., priority 2021, published 2024)

Key:
[1] = test system: human iPSC-derived nonalcoholic steatohepatitis organoids; assay: ROS quantitative analysis by CM-H2DCFDA staining of NASH organoids in 100-well HD chip; format: cell-based; details: NASH+Eze versus NASH organoid
Method: To check the accumulation of reactive oxygen species (ROS) caused by oxidative stress in Normal, NASH and NASH+Eze human iPSC-derived liver organoids (HEMKS) fabricated in the high-throughput 100-well HD chip by the same culture method as described above, ROS activity and quantitative analysis between the groups was performed by CM-H2DCFDA staining, which is oxidative stress detection assay.
The high-throughput HD chip was designed and fabricated with the same dimensions as a commercially available conventional 384-well plate.

[2] = test system: human iPSC-derived nonalcoholic steatohepatitis organoids; assay: Effective drug test on human iPSC-derived nonalcoholic steatohepatitis organoids (HEMKS) in 100-well HD chip: qPCR, immunostaining, BODIPY; format: cell-based; details: oleic acid 500 μM + ezetimibe 50 μM for 2 days
Method: Human iPSC-derived liver organoids (HEMKS) were fabricated in the high-throughput 100-well HD chip. Then, a normal group was cultured in a normal culture medium for 7 days, whereas a nonalcoholic steatohepatitis (NASH) group was normally cultured for 5 days and then further cultured for 2 days in the culture medium mixed with 500 μM oleic acid, a free fatty acid, to induce steatohepatitis. Ezetimibe (Eze), an effective drug for treatment of fatty liver, is a drug candidate group that serves as a cholesterol absorption inhibitor and is conventionally used to treat high blood cholesterol and lipid abnormalities. After 5 days of normal culture, oleic acid (500 μM) and ezetimibe (50 μM) were mixed in the culture medium, followed by additional culture for 2 days to test the drug for steatohepatitis. After a total of 7 days of culture, the degree of fat accumulation was compared and the maker expression and gene expression were compared between groups by immunostaining and quantitative PCR analysis. For more accurate steatohepatitis modeling and drug screening, liver organoids containing immune cells (Kupffer cells) and mesenchymal cells (hepatic stellate cells) constituting a liver tissue microenvironment were fabricated. To this end, human iPSC-derived liver organoids were fabricated at a ratio of iPSC hepatic cells (H): vascular endothelial cells (E): mesenchymal stem cells (M): iPSC-derived Kupffer cells (K): iPSC-derived hepatic stellate cells (S)=10:7:2:2:1 (HEMKS).

[3] = quantitative PCR, versus NASH group

O=C1[C@H](CC[C@H](O)c2ccc(F)cc2)[C@@H](c2ccc(O)cc2)N1c1ccc(F)cc1 [Eze, Ezetimibe]
oxidative stress caused by ROS ([1]; CM-H2DCFDA staining, imaging): decreased to a certain level or less
fluorescence intensity (ROS oxidative stress) ([1]; on-chip analysis with plate reader): decreased
expression level of ALB, a hepatic differentiation marker ([2]; immunostaining, versus NASH organoid): recovered to a certain level
fatty acid accumulation (BODIPY fluorescence signal labeling lipid) ([2]; versus NASH organoid): decreased
expression level of PLIN2, a fatty acid accumulation marker [2, 3]: decreased
expression level of SMA, liver fibrosis marker [2, 3]: decreased
expression level of TNF-α, an inflammation marker [2, 3]: decreased
expression level of VIM, liver fibrosis marker [2, 3]: decreased
